Test results from patent US20070010428A1, “Inhibitors of signal transduction and activator of transcription 3” (priority 2004, published 2007).
Like-named read-outs stand apart in the source and are kept apart here. Where a SMILES comes first, the peptide text is derived from it. [ ]: non-standard residue; d: D form. pY = N[C@@H](Cc1ccc(OP(=O)(O)O)cc1)C(=O)O; mts = not defined here

Tests used:
full length Stat3 = target: T1, full length Stat3 (Homo sapiens, UniProt P40763); assay: Fluorescence polarization assay, competition with FP probe for full length Stat3; type: binding
T1 construct: Aliquots of 50 μl of 80 nM full length Stat^3a and 20 nM of probe
T1 sequence (P40763 whole entry, species assumed): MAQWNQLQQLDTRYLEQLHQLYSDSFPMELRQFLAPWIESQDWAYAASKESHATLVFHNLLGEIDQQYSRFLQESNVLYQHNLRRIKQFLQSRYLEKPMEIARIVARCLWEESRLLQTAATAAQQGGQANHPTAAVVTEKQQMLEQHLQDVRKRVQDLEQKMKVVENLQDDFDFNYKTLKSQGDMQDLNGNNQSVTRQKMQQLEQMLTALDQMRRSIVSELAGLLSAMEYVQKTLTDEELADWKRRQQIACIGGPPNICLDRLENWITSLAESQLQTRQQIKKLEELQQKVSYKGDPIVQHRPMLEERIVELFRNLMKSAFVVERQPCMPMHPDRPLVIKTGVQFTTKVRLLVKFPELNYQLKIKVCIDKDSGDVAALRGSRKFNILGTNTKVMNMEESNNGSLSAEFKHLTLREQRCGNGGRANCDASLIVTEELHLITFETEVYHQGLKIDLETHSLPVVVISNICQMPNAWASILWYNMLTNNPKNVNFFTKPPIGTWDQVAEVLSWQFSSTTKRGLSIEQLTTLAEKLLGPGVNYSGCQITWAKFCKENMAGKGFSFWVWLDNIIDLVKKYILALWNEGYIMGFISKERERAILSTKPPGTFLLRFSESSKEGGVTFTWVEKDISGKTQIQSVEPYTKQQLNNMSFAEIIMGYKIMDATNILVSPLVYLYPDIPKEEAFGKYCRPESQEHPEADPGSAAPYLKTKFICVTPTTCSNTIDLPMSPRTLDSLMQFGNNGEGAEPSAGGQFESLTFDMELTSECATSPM
Procedure: FIG. 5 is FP curves of Stat3. Left panel, Titration of full length Stat3 into 10 nM solutions of FP probe. Each protein concentration was run in duplicate and the mean ±½ the difference between the high and low value was plotted. […] Each peptide concentration was run in duplicate and the mean ±½ the difference between the high and low value was plotted. A Perkin Elmer (formerly Packard) 204DT Multiprobe liquid handling robot was used to prepare serial dilutions of the inhibitors and to add these solutions to Stat3-probe solutions. The dilutions and additions were done in 96-well plates and FP was read on a Tecan Polarian plate reader. […]
Fluorescence polarization (FP) is a rapid and easy method for the measurement of peptide-protein interactions, drug-protein interactions, and drug-oligonucleotide interactions, and is readily adaptable to high throughput formats (reviewed in Nasir & Joley, 1999; Owicki, 2000). FP involves exciting a fluorophore with polarized light and taking the ratio of fluorescence at right angles after a brief period of time. […]
Aliquots of 50 μl of 80 nM full length Stat^3a and 20 nM of probe in 50 mM NaCl, 10 mM Hepes, 1 mM Na4EDTA, 2 mM DTT, and 1% NP-40 were placed in wells of a 96 well black, opaque, non-stick microtiter plate. […] Fluorescence polarization was then read in a Tecan Polarian plate reader. […]

Stat3 [1] = target: T2, Stat3 (Homo sapiens, UniProt P40763); details: cited from earlier work
T2 sequence (P40763 whole entry, species assumed): as above

Stat3 [2] = target: T2, Stat3; assay: EMSA of inhibition of Stat3 dimerization and DNA binding by phosphopeptides; type: biochemical; details: averages of two determinations
Procedure: To find a lead compound for inhibitor development, a series of phospho-hexapeptides derived from known receptor docking sites for Stat3 were synthesized and assayed for their ability to inhibit Stat3 dimerization and DNA binding using electrophoretic mobility shift assays (EMSA) (Ren et al., 2003). […] SAR experiments were conducted systematically replacing each amino acid. The goal was to find non-peptidic groups that would be stable to phosphatases and proteases, and that would be more hydrophobic to allow greater bioavailability. […] The small peptidomimetics were assayed for their ability to bind to the SH2 domain of Stat3 using fluoresence polarization.
(§1) Nuclear extract was extracted as previously described (Andrews and Faller, 1991). Equal amount of nuclear extract protein was then incubated with ^32P labeled high-affinity c-sis-inducible element (hSIE; 5′-[…]-3′ , SEQ ID NO:25) (Santa Cruz). The reactions were performed in a total volume of 24 μl in buffer consisting of 10 mM HEPES (pH 7.8), 50 mM KCl, 1 mM EDTA, 5 mM MgCl2, 10% glycerol, 5 mM dithiothreitol, 1 mg of bovine serum albumin per ml, 0.5 mM phenyl-methylsulfonylflouride, and 1 mM Na3VO4 with 1 μg of poly (dI-dC) and 0.3 ng of ^32P-labeled hSIE. […] The screen was then scanned and the bands showing Stat3-DNA binding were quantified using the Storm System (Molecular Dynamics).

[3] = test system: Stat3-responsive α2-macroglobulin promoter; assay: IL-6 stimulated luciferase reporter under α2-macroglobulin promoter in HEPG2 cells; type: cell-based; details: for inhibition of luciferase activity, initial screen: IL-6
Procedure: Liver hepatoma cells, HEPG2, when stimulated with IL-6, respond by increased phosphorylation of Stat3, which translocates to the nucleus and initiates transcription of acute response phase genes, such as a2-macroglobulin. HEPG2 cells were transfected with luciferase gene construct containing the α2-macroglobulin promoter. Cells were treated with peptides 21, 24, and 25 for 1 hr before stimulation with IL-6. Four hours later cells were lysed and luciferase activity was assayed (FIG. 9). […] Phosphopeptide 24 reduced induction to 60-70% of that of IL-6 at 50 and 100 μM.
(§2) Cell culture and transient transfection. HepG2 cells were grown in DMEM containing 10% fetal bovine serum. Cells were plated at a density of 3×10^5 per 6cm dish. Next day, plasmids were transfected with a plasmid comprised of firefly luciferase under the α2-macroglobulin promoter (Ren & Schaefer, 2002) at a ratio of 1 μg DNA to 3 μl Fugene-6 reagent according to the protocol supplied by Roche. After 48 hours, cells were treated with different peptides in serum free media for 1 hour, and then stimulated with […] IL-6. Cells were harvested at the time indicated.
(§3) Luciferase assay. Luciferase assay reagents were purchased from Promega and the assays performed according to the manufacturer's protocol. In brief, cells were washed twice with ice-cold PBS and then collected. After centrifugation at 4,500 rpm for 1 minute, cells were lysed in 1× lysis buffer (Promega) at room temperature for 30 minutes. The lysate was cleared by centrifugation at 13,000 rpm for 10 minutes. Then 50 μl of luciferase substrate was added to 10 μl of supernatant and the luciferase value was read by luminometer (Pharmingen). Each transfection was normalized to concomitant β-galactosidase expression from a control transfected plasmid pYN3214-lacZ.

[4] = test system: Stat3-responsive α2-macroglobulin promoter; assay: IL-6 stimulated luciferase reporter in Hep3B cells; type: cell-based; details: FIG. 10
Procedure: Peptidomimetic 23 was tested for the ability to inhibit luciferase induction in a second hepatoma cell line: Hep3B. Identical procedures as for the HEPG2 experiments above were used in this cell line.
as §2
as §3, with “Each transfection was normalized to concomitant β-galactosidase expression from a control transfected plasmid pYN3214-lacZ.” left out

Stat3 [5] = target: T2, Stat3; assay: Stat3 nuclear translocation, EMSA of nuclear extracts of IL-6 stimulated HepG2 cells; type: cell-based; details: HepG2, 100 μM for 1 hr, IL-6 15 min
Procedure: FIG. 11 is an image of a gel showing EMSA of nuclear extracts of HEPG2 cells inhibited with peptides. Shown are gels from two independent experiments. Lane 1, control: no IL-6 or inhibitor. Lane 2-6 are all stimulated with IL-6, 6 ng/mL. Lane 2, no inhibitor, Lane 3 phosphopeptide 24, Lane 4, control peptide 25, Lane 5, F2PmCinn peptide 21, Lane 6, prodrug 23.
HepG2 cells were treated with 100 μM peptide for 1 hr. Cells were stimulated with IL-6 and 15 min later cells were lysed and nuclear extracts were obtained.
as §1, with “hSIE. Following incubation for 15 min at room temperature, the reactions were electrophoresed on 4% native polyacrylamide gets.” for “hSIE.”

SH2 domain of Stat3 = assay: IC50 FP (nM)
Procedure: Table printed on a drawing sheet, FIGURE 14a
Head of the field: IC50 FP (nM)
First copying reader's note: The column headed 'Structure' holds only drawn chemical structures (left empty here); the written peptidomimetic sequence stands in an unheaded column to its left.
Where the first naming reader finds the target: passage: The small peptidomimetics were assayed for their ability to bind to the SH2 domain of Stat3 using fluoresence polarization.

Compound: CC(=O)NC(Cc1ccc(OP(=O)(O)O)cc1)C(=O)NC1CCc2cccc3c2N(C1=O)C(C(=O)NC(CCC(N)=O)C(=O)NC(C(N)=O)C(C)O)C3 (stereo not drawn) [Compound 10, Ac-pTyr-Haic-Gln-Thr-NH2]
- IC50 (full length Stat3; 10 nM probe and 40 nM Stat3 final, read-out: IC50 (fluorescence polarization)): 100 to 200 nM

Compound: NC(=O)CCC(NC(=O)C1CCC2CCC(NC(=O)C=Cc3ccc(OP(=O)(O)O)cc3)C(=O)N21)C(=O)NCc1ccccc1 (stereo not drawn) [FIG. 15 compound]
- IC50 (full length Stat3; assay not named, presumably fluorescence polarization, read-out: IC50 of the FIG. 15 compound): 400 nM

Compound: CC(C)C[C@H](NC(=O)[C@H](Cc1ccc(OP(=O)(O)O)cc1)NC(=O)c1ccc(C#N)cc1)C(=O)O [ISS 610]
- concentration required for activity in luciferase reporter and cell growth assays (Stat3 [1]; cell culture models, Turkson et al. (2004)): 1 mM

Compound: CC(=O)N[C@@H](Cc1ccc(OP(=O)(O)O)cc1)C(=O)N[C@@H](CC(C)C)C(=O)N[C@@H](CCCCN)C(=O)N[C@H](C(=O)N[C@@H](CCCCN)C(=O)N[C@@H](Cc1ccccc1)C(N)=O)[C@@H](C)O [Peptide 2, Ac-pTyr-Leu-Lys-Thr-Lys-Phe-NH2] (Ac-[pY]LKTKF-NH2)
- IC50 (Stat3 [2]): 20000 nM

Compound: Ac-Tyr-Leu-Pro-Gln-Thr-Val-mts (Ac-YLPQTV-mts; not fully specified; printed as Ac-Tyr-Leu-Pro-Gln-Thr-Val-mts; reading uncertain) [Peptide 25, non-phosphorylated control]
- reduction in luciferase activity ([3]; HEPG2, 50 or 100 μM, 1 hr before IL-6, lysed 4 h later): no significant reduction in luciferase activity

Compound: Ac-pTyr-Leu-Pro-Gln-Thr-Val-mts (Ac-[pY]LPQTV-mts; reading uncertain; also: printed as Ac-pTyr-Leu-Pro-Gln-Thr-Val-mts) [Peptide 24]
- luciferase induction, % of that of IL-6 ([3]; HEPG2, at 50 and 100 μM): 60-70%

Compound: F2Pm(POM)Cinn-Haic-Gln-NHBn [Compound 23]
- reduction in luciferase activity [4]: dose dependant reduction in luciferase activity
- inhibition of Stat3 translocation to the nucleus (Stat3 [5]): inhibited Stat3 translocation to the nucleus

Compound: F2PmCinn-Cha-Pro- Gln-NHBn [8 | PM-88D]
- IC50 (SH2 domain of Stat3): 2000 nM

Compound: F2PmCinn-Leu-Pro-Gln-Thr-Val-Ala-Ala-Val-Leu-Leu-Pro-Val-Leu-Leu-Ala-Ala-Pro-NH2 [Peptide 21]
- luciferase activity, % of untreated cells ([3]; HEPG2, 50 μM): 50%
- luciferase activity, % of untreated cells ([3]; HEPG2, 100 μM): 25%
- inhibition of Stat3 translocation to the nucleus (Stat3 [5]): inhibited Stat3 translocation to the nucleus

Compound: H-P[pY]LKTKAAVLLPVLLAAP-OH [SEQ ID NO:4]
- concentration required to inhibit luciferase reporter gene expression, Stat3 nuclear translocation, and cell growth (Stat3 [1]; cell culture, Turkson et al.): 0.5 to 1 mM

Compound: H-Pro-Tyr-Leu-Lys-Thr-Lys-Phe-Ile-mts (H-PYLKTKFI-mts; not fully specified; reading uncertain) [Peptide 26, reported by Turkson et al (2001), reference compound]
- inhibition of luciferase activity, initial screen ([3]; HEPG2, 100 μM): neither phosphopeptide 26 nor the unphosphorylated version, 27 (Turkson et al, 2001), showed inhibition of luciferase activity

Compound: H-Pro-pTyr-Leu-Lys-Thr-Lys-Phe-Ile-mts (H-P[pY]LKTKFI-mts; reading uncertain; also: printed as H-Pro-pTyr-Leu-Lys-Thr-Lys-Phe-Ile-mts) [Peptide 27, reported by Turkson et al (2001), reference compound]
- inhibition of luciferase activity, initial screen ([3]; HEPG2, 100 μM): neither phosphopeptide 26 nor the unphosphorylated version, 27 (Turkson et al, 2001), showed inhibition of luciferase activity

Compound: pCinn-Cha-Pro-Gln- NHBn [7 | PM-66D]
- IC50 (SH2 domain of Stat3): 50 nM

Compound: pCinn-Leu-Pro-Gln- Thr-NH2 [5 | PM-50D]
- IC50 (SH2 domain of Stat3): 110 nM

Compound: pInd-Cha-Pro-Gln- NHBn [9 | PM-67D]
- IC50 (SH2 domain of Stat3): 100 nM
